BindingDB's records for doi:10.1016/j.bmc.2009.11.019 (Istituto Di Ricerche Chimiche E Biochimiche G. Ronzoni, 2010)

Assay: Inhibition of integrin alphaV receptor-mediated adhesion of human PC3 cells to vitronectin after 1 hr by toluidine blue staining

## NC(N)=NCCC[C@@H]1NC(=O)C(c2ccc(CNC(=O)COCCOCCOCC(=O)O)cc2)NC(=O)[C@@H](Cc2ccccc2)NC(=O)[C@H](CC(=O)O)NC(=O)CNC1=O (stereo partly drawn) [1-(4-((5S,11S,14R)-14-benzyl-11-(carboxymethyl)-5-(3-guanidinopropyl)-3,6,9,12,15-pentaoxo-1,4,7,10,13-pentaazacyclopentadecan-2-yl)phenyl)-3-oxo-5,8,11-trioxa-2-azatridecan-13-oic acid]
  IC50: 18.8 µM

## NNC(=O)COCCOCCOCC(=O)NCc1ccc([C@@H]2NC(=O)[C@@H](Cc3ccccc3)NC(=O)[C@H](CC(=O)O)NC(=O)CNC(=O)[C@H](CCCN=C(N)N)NC2=O)cc1 [2-((2S,5R,8S,11S)-5-benzyl-11-(3-guanidinopropyl)-8-(4-(13-hydrazinyl-3,13-dioxo-5,8,11-trioxa-2-azatridecyl)phenyl)-3,6,9,12,15-pentaoxo-1,4,7,10,13-pentaazacyclopentadecan-2-yl)acetic acid]
  IC50: 15.6 µM

## CC[C@@]1(O)C(=O)OCc2c1cc1n(c2=O)Cc2c-1nc1ccccc1c2CCC=NNC(=O)COCCOCCOCC(=O)NCc1ccc(C[C@@H]2NC(=O)[C@@H](Cc3ccccc3)NC(=O)[C@H](CC(=O)O)NC(=O)CNC(=O)[C@H](CCCN=C(N)N)NC2=O)cc1 [2-[(2S,5R,8S,11S)-5-benzyl-11-(3-carbamimidamidopropyl)-8-({4-[(2-{2-[2-({N'-[(1E)-3-[(19S)-19-ethyl-19-hydroxy-14,18-dioxo-17-oxa-3,13-diazapentacyclo[11.8.0.0^{2,11}.0^{4,9}.0^{15,20}]henicosa-1(21),2,4,6,8,10,15(20)-heptaen-10-yl]propylidene]hydrazinecarbonyl}methoxy)ethoxy]ethoxy}acetamido)methyl]phenyl}methyl)-3,6,9,12,15-pentaoxo-1,4,7,10,13-pentaazacyclopentadecan-2-yl]acetic acid]
  IC50: 11 µM

## CC[C@@]1(O)C(=O)OCc2c1cc1n(c2=O)Cc2c-1nc1ccccc1c2C=NNC(=O)COCCOCCOCC(=O)NCc1ccc(C[C@@H]2NC(=O)[C@@H](Cc3ccccc3)NC(=O)[C@H](CC(=O)O)NC(=O)CNC(=O)[C@H](CCCN=C(N)N)NC2=O)cc1 [2-[(2S,5R,8S,11S)-5-benzyl-11-(3-carbamimidamidopropyl)-8-({4-[(2-{2-[2-({N'-[(1E)-[(19S)-19-ethyl-19-hydroxy-14,18-dioxo-17-oxa-3,13-diazapentacyclo[11.8.0.0^{2,11}.0^{4,9}.0^{15,20}]henicosa-1(21),2,4,6,8,10,15(20)-heptaen-10-yl]methylidene]hydrazinecarbonyl}methoxy)ethoxy]ethoxy}acetamido)methyl]phenyl}methyl)-3,6,9,12,15-pentaoxo-1,4,7,10,13-pentaazacyclopentadecan-2-yl]acetic acid]
  IC50: 4.8 µM

## CC[C@@]1(O)C(=O)OCc2c1cc1n(c2=O)Cc2c-1nc1ccccc1c2/C=N\OCCNC(=O)CCC[C@@H]1NC(=O)[C@@H](Cc2ccccc2)NC(=O)[C@H](CC(=O)O)NC(=O)CNC(=O)[C@H](CCCN=C(N)N)NC1=O [2-[(2S,5R,8S,11S)-5-benzyl-11-(3-carbamimidamidopropyl)-8-{3-[(2-{[(Z)-{[(19S)-19-ethyl-19-hydroxy-14,18-dioxo-17-oxa-3,13-diazapentacyclo[11.8.0.0^{2,11}.0^{4,9}.0^{15,20}]henicosa-1(21),2,4,6,8,10,15(20)-heptaen-10-yl]methylidene}amino]oxy}ethyl)carbamoyl]propyl}-3,6,9,12,15-pentaoxo-1,4,7,10,13-pentaazacyclopentadecan-2-yl]acetic acid]
  IC50: 5.8 µM

## CC[C@@]1(O)C(=O)OCc2c1cc1n(c2=O)Cc2c-1nc1ccccc1c2/C=N/OCCNC(=O)COCCOCCOCC(=O)NCc1ccc(C[C@@H]2NC(=O)[C@@H](Cc3ccccc3)NC(=O)[C@H](CC(=O)O)NC(=O)CNC(=O)[C@H](CCCN=C(N)N)NC2=O)cc1 [2-[(2S,5R,8S,11S)-5-benzyl-11-(3-carbamimidamidopropyl)-8-{[4-({2-[2-(2-{[(2-{[(E)-{[(19S)-19-ethyl-19-hydroxy-14,18-dioxo-17-oxa-3,13-diazapentacyclo[11.8.0.0^{2,11}.0^{4,9}.0^{15,20}]henicosa-1(21),2,4,6,8,10,15(20)-heptaen-10-yl]methylidene}amino]oxy}ethyl)carbamoyl]methoxy}ethoxy)ethoxy]acetamido}methyl)phenyl]methyl}-3,6,9,12,15-pentaoxo-1,4,7,10,13-pentaazacyclopentadecan-2-yl]acetic acid]
  IC50: 8.3 µM

## CC[C@@]1(O)C(=O)OCc2c1cc1n(c2=O)Cc2c-1nc1ccccc1c2/C=N/OCCNC(=O)CCC(=O)NCc1ccc(C[C@@H]2NC(=O)[C@@H](Cc3ccccc3)NC(=O)[C@H](CC(=O)O)NC(=O)CNC(=O)[C@H](CCCN=C(N)N)NC2=O)cc1 [2-[(2S,5R,8S,11S)-5-benzyl-11-(3-carbamimidamidopropyl)-8-{[4-({3-[(2-{[(E)-{[(19S)-19-ethyl-19-hydroxy-14,18-dioxo-17-oxa-3,13-diazapentacyclo[11.8.0.0^{2,11}.0^{4,9}.0^{15,20}]henicosa-1(21),2,4,6,8,10,15(20)-heptaen-10-yl]methylidene}amino]oxy}ethyl)carbamoyl]propanamido}methyl)phenyl]methyl}-3,6,9,12,15-pentaoxo-1,4,7,10,13-pentaazacyclopentadecan-2-yl]acetic acid]
  IC50: > 100 µM
